In ChEMBL document CHEMBL1129412, “Computation of brain-blood partitioning of organic solutes via free energy calculations” (J Med Chem, 1996):

Assay: The ratio of brain-blood partitioning, (C brain / C blood).
Type: ADME, tissue-based
Conditions: not given

Row | Structure (SMILES) | Kp
1 | CN1Cc2c(-c3noc(C(C)(O)CO)n3)ncn2-c2cccc(Cl)c2C1=O (stereo not drawn) | 0.015
2 | CN1Cc2c(-c3noc(C(C)(C)O)n3)ncn2-c2cccc(Cl)c2C1=O | 0.046
3 | CC(C)c1nc(-c2ncn3c2CN(C)C(=O)c2c(Cl)cccc2-3)no1 | 0.5
4 | CN(C)CCC=C1c2ccccc2CCc2ccccc21 [AMITRIPTYLINE] | 9.6
5 | NC(=O)N1c2ccccc2C2OC2c2ccccc21 (stereo not drawn) [CARBAMAZEPINE EPOXIDE] | 0.46
6 | NC(=O)N1c2ccccc2C=Cc2ccccc21 [CARBAMAZEPINE] | 1

Assay: logBB, log(C brain / C blood)
Conditions: blood

Row | Structure (SMILES) | Kp
7 | FC(F)OC(F)(F)C(F)Cl (stereo not drawn) | 1.74
8 | CN1Cc2c(-c3noc(C(C)(O)CO)n3)ncn2-c2cccc(Cl)c2C1=O (stereo not drawn) | 0.0151
9 | CCCC(C)CC (stereo not drawn) | 7.94
10 | CCO [ALCOHOL] | 0.692
11 | c1ccccc1 [BENZENE] | 2.34
12 | CCC(C)=O [BUTANONE] | 0.832
13 | NC(=O)N1c2ccccc2C=Cc2ccccc21 [CARBAMAZEPINE] | 1
14 | C=COCC(F)(F)F [FLUROXENE] | 1.35
15 | CCCCCC [HEXANE] | 6.31
16 | FC(F)OC(Cl)C(F)(F)F (stereo not drawn) [ISOFLURANE] | 2.63
17 | Cc1ccccc1 [TOLUENE] | 2.34
18 | CC(Cl)(Cl)Cl [TRICHLOROETHANE] | 2.51
19 | ClC=C(Cl)Cl [TRICHLOROETHYLENE] | 2.19

Second part, the compound after the results:

Row | Kp | Structure (SMILES)
20 | 1.86 | FC(Br)C(F)(F)F (stereo not drawn)
21 | 10.2 | CCC(C)CC
22 | 2.24 | FC(F)(F)C(Cl)Br (stereo not drawn) [HALOTHANE]
23 | 6.46 | CCCCCCC [HEPTANE]
24 | 0.708 | CC(C)O [ISOPROPYL ALCOHOL]
25 | 8.51 | CC1CCCC1 [METHYLCYCLOPENTANE]

Same assay, conditions: brain / blood

Row | Structure (SMILES) | Kp
26 | FC(F)(F)CCl | 1.2
27 | CCC(C)(C)C | 11
28 | CN1Cc2c(-c3noc(C(C)(C)O)n3)ncn2-c2cccc(Cl)c2C1=O | 0.0457
29 | CC(C)c1nc(-c2ncn3c2CN(C)C(=O)c2c(Cl)cccc2-3)no1 | 0.501
30 | CN(C)Cc1ccc(-c2cccc(Nc3[nH]ccc3[N+](=O)[O-])c2)o1 | 0.537
31 | NC(=O)N1c2ccccc2C2OC2c2ccccc21 (stereo not drawn) [CARBAMAZEPINE EPOXIDE] | 0.457
32 | N#N [NITROGEN] | 1.07
33 | CCCCC [PENTANE] | 5.75

Next, values leading:

Row | Kp | Structure (SMILES)
34 | 9.33 | CCCC(C)C
35 | 0.676 | CC(C)CO [ISOBUTANOL]
36 | 1.1 | C [METHANE]

Assay: logBB, log(C brain/C blood)
Conditions: blood

Row | Structure (SMILES) | Kp
37 | Cc1csc(N=C(N)N)n1 | 0.912
38 | c1ccc(NCCCOc2cccc(CN3CCCCC3)c2)nc1 | 4.9
39 | CN(C)Cc1ccnc(-c2cccc(Nc3[nH]ccc3[N+](=O)[O-])c2)c1 | 0.525
40 | c1cc(CN2CCCCC2)cc(OCCCNc2nccs2)c1 | 2.75
41 | CC(=O)NCCCOc1cccc(CN2CCCCC2)c1 | 0.347
42 | CN(C)Cc1ccc(CSCCNc2[nH]cc(Cc3ccccc3)c2[N+](=O)[O-])o1 | 0.186
43 | CC/N=C(\NC#N)NCCSCc1ncccc1Br | 0.00708
44 | CN/C(=N/CCSCc1nc[nH]c1C)NC#N [CIMETIDINE] | 0.038
45 | COc1cccnc1CCCCNc1ncc(Cc2ccc(C)nc2)c(=O)[nH]1 [ICOTIDINE] | 0.01
46 | COc1ccc(CN(CCN(C)C)c2ccccn2)cc1 [PYRILAMINE] | 3.09

Further lines, results first:

Row | Kp | Structure (SMILES)
47 | 0.575 | O=C(NCCCOc1cccc(CN2CCCCC2)c1)c1ccccc1
48 | 0.0269 | CC(=O)Nc1cccc(-c2csc(N=C(N)N)n2)c1
49 | 6.76 | CN(C)CCCN1c2ccccc2CCc2ccccc21 [IMIPRAMINE]

Same assay, conditions: brain / blood

Row | Structure (SMILES) | Kp
50 | O=[N+]([O-])c1c(Cc2ccccc2)c[nH]c1NCCSCc1ccccn1 | 0.759
51 | NC(N)=Nc1nc(-c2ccccc2)cs1 | 0.661
52 | O=[N+]([O-])c1cc[nH]c1NCCSCc1ncccc1Br | 0.214
53 | CN(C)c1cc(-c2n[nH]c(N)n2)ccn1 | 0.0676

More lines, now with the values ahead:

Row | Kp | Structure (SMILES)
54 | 0.0501 | CN(C)Cc1ccc(CSCCNc2ncc(Cc3ccc4ccccc4c3)c(O)n2)o1
55 | 0.0759 | CN(C)Cc1ccc(CSCCNc2[nH]ccc2[N+](=O)[O-])o1
56 | 0.0708 | N=C(N)Nc1nc(-c2cccc(N)c2)cs1
57 | 0.0288 | C/N=C(\NC#N)Nc1cccc(-c2csc(N=C(N)N)n2)c1
58 | 0.0871 | Cc1ccc(Cc2c[nH]c(NCCSCc3ccc(CN(C)C)o3)nc2=O)cn1 [LUPITIDINE]
